Literature values as cited in US20200397798A1, “COMBINATION THERAPIES WITH FARNESOID X RECEPTOR (FXR) MODULATORS” (Akarna Therapeutics, Ltd., priority 2016, published 2020).
Entries after “also recorded” stand apart in the source; their conditions may differ.

Assays:
[1] = tested on: KK-A(y) mice; conditions: mouse, in vivo
[2] = tested on: plasma triglyceride levels; conditions: human, in vivo
[3] = tested on: DSS- and TNBS-induced intestinal inflammation; conditions: wild type, but not Fxr−/− mice
[4] = tested on: CGD-susceptible C57L mice; conditions: lithogenic diet supplemented with GW4064, 1 week
[5] = tested on: ob/ob and db/db mice; conditions: mouse, in vivo
[6] = tested on: T84 cells
[7] = tested on: mice; conditions: in vivo
[8] = tested on: patients with biopsy-proven NASH; conditions: OCA arm, 25 mg orally daily
[9] = tested on: C57BL/6 mice fed an MCD diet

**Q.** With C[C@H](CCC(=O)O)[C@H]1CC[C@H]2[C@@H]3[C@H](O)C[C@@H]4C[C@H](O)CC[C@]4(C)[C@H]3C[C@H](O)[C@]12C [CA] as the compound, how does the “hepatic TG accumulation and VLDL secretion” value [1] read?
**A.** prevented

**Q.** For C[C@H](CCC(=O)O)[C@H]1CC[C@H]2[C@@H]3[C@H](O)C[C@@H]4C[C@H](O)CC[C@]4(C)[C@H]3CC[C@]12C [CDCA, chenodeoxycholic acid], which plasma triglyceride levels [2] is on record?
**A.** decreased circulating TG levels; also recorded: reduces plasma triglyceride levels

**Q.** Which “expression of proinflammatory cytokines, chemokines and their receptors” value [3] does the source give for CC[C@H]1[C@@H](O)[C@@H]2[C@H](CC[C@]3(C)[C@@H]([C@H](C)CCC(=O)O)CC[C@@H]23)[C@@]2(C)CC[C@@H](O)C[C@@H]12 [Compound 6-ECDCA] here?
**A.** repressed

**Q.** For CC(C)c1onc(-c2c(Cl)cccc2Cl)c1COc1ccc(/C=C/c2cccc(C(=O)O)c2)c(Cl)c1 [GW4064], which CGD onset [4] is on record?
**A.** prevented CGD onset

**Q.** And the liver steatosis [5]?
**A.** able to prevent liver steatosis

**Q.** What about the “Cl− secretory responses to Ca2+ and cAMP-dependent agonists” value [6] of the same compound?
**A.** attenuated

**Q.** And the “nuclear translocation of the receptor (FXR)” value [6]?
**A.** induced nuclear translocation

**Q.** And the “ovalbumin-induced diarrhea and cholera toxin-induced intestinal fluid accumulation” value [7]?
**A.** reduced

**Q.** Which “change in HDL, total cholesterol and LDL compared to placebo” value [8] does the source give for CC[C@H]1[C@@H](O)[C@@H]2[C@H](CC[C@]3(C)[C@@H]([C@H](C)CCC(=O)O)CC[C@@H]23)[C@@]2(C)CC[C@@H](O)C[C@@H]12 [OCA, obeticholic acid] here?
**A.** decrease in the high-density lipoprotein (HDL) and an increase in the total cholesterol and low-density lipoprotein (LDL)

**Q.** Which “elevations of serum ALT and AST induced by the MCD diet” value ([9]; 4 weeks treatment) does the source give for CC(C)OC(=O)C1=CN(C(=O)c2ccc(F)c(F)c2)CC(C)(C)c2c1[nH]c1ccccc21 [WAY-362450] here?
**A.** markedly reduced

**Q.** What about the “hepatoprotective effects in FXR−/− mice” value ([9]; FXR−/− mice fed an MCD diet) of the same compound?
**A.** abolished
